target: T1, human PAH with the R408W mutation (A375 R408W cells) (Homo sapiens, UniProt P00439, R408W); test: Cell Based Phenylalanine Flux Assay; details: A375 R408W cells; 24 hrs with compound, then 20 μM sepiapterin and 800 μM 13C9,15N-Phenylalanine for 4 hours; 13C-Tyrosine by LC-MS; average where tested multiple times
T1 construct: expressed in transfected cells
T1 sequence (P00439 1-452 R408W): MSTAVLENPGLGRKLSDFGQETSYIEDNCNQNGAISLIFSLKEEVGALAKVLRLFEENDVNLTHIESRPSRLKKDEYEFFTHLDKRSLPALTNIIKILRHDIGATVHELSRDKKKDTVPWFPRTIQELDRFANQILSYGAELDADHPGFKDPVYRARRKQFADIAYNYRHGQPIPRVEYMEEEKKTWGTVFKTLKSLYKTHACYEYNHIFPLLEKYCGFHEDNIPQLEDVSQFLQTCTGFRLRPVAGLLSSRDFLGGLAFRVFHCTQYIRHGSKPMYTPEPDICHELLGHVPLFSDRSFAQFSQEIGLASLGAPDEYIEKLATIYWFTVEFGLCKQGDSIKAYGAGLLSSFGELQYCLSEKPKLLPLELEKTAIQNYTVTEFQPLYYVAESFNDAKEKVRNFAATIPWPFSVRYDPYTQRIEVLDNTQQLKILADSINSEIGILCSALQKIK
In short: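 Puromycin-selected A375 line, lentiviral hPAH R408W; cmpd 24 h, 37 °C, 5% CO2, 0.5% DMSO; then 20 μM sepiapterin + 800 μM 13C9,15N-Phe, 4 h; media extracted in 80% MeCN; 13C-Tyr by LC-MS; AC50 from 10-pt curves.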

SMILES	AC50
O=C(c1nnc(-c2ccccn2)o1)N1CCc2[nH]cnc2[C@H]1c1nc2ccc(F)c(F)c2o1 [Example 546, (S)-(4-(6,7-difluorobenzo[d]oxazol-2-yl)-6,7-dihydro-1H-imidazo[4,5-c]pyridin-5(4H)-yl)(5-(pyridin-2-yl)-1,3,4-oxadiazol-2-yl)methanone]	0.5 to 1 µM
Cc1cccc2nc([C@H]3c4nc[nH]c4CCN3C(=O)c3nnc(-c4ccccn4)o3)oc12 [Example 568, (R)-(4-(7-methylbenzo[d]oxazol-2-yl)-6,7-dihydro-1H-imidazo[4,5-c]pyridin-5(4H)-yl)(5-(pyridin-2-yl)-1,3,4-oxadiazol-2-yl)methanone]	1 to 5 µM
O=C(c1ocnc1C(F)F)N1CCc2[nH]cnc2[C@@H]1c1nc2c(F)ccc(F)c2o1 [Example 374, (R)-(4-(4,7-difluorobenzo[d]oxazol-2-yl)-6,7-dihydro-1H-imidazo[4,5-c]pyridin-5(4H)-yl)(4-(difluoromethyl)oxazol-5-yl)methanone]	≤ 0.5 µM
Cc1cccc2oc([C@@H]3c4nc[nH]c4CCN3C(=O)c3nc(C(F)F)nn3C)nc12 [Example 447, (S)-(3-(difluoromethyl)-1-methyl-1H-1,2,4-triazol-5-yl)(4-(4-methylbenzo[d]oxazol-2-yl)-6,7-dihydro-1H-imidazo[4,5-c]pyridin-5(4H)-yl)methanone]	≤ 0.5 µM
Cc1ccc2c(C(=O)N3CCc4[nH]cnc4[C@H]3c3nc4cccc(F)c4o3)cnn2c1 [Example 323, (S)-(4-(7-fluorobenzo[d]oxazol-2-yl)-6,7-dihydro-1H-imidazo[4,5-c]pyridin-5(4H)-yl)(6-methylpyrazolo[1,5-a]pyridin-3-yl)methanone]	≤ 0.5 µM
Cc1cccc2nc([C@@H]3c4nc[nH]c4CCN3C(=O)c3nnc(-c4cnn(C)c4)o3)oc12 [Example 565, (S)-(5-(1-methyl-1H-pyrazol-4-yl)-1,3,4-oxadiazol-2-yl)(4-(7-methylbenzo[d]oxazol-2-yl)-6,7-dihydro-1H-imidazo[4,5-c]pyridin-5(4H)-yl)methanone]	0.5 to 1 µM

Next, values leading:

AC50	SMILES
1 to 5 µM	COc1ccc2oc([C@H]3c4nc[nH]c4CCN3C(=O)c3nnc(-c4ccccn4)o3)nc2c1 [Example 556, (R)-(4-(5-methoxybenzo[d]oxazol-2-yl)-6,7-dihydro-1H-imidazo[4,5-c]pyridin-5(4H)-yl)(5-(pyridin-2-yl)-1,3,4-oxadiazol-2-yl)methanone]
1 to 5 µM	Cc1ccc2oc([C@H]3c4nc[nH]c4CCN3C(=O)c3nnc(-c4ccc(F)cn4)o3)nc2c1 [Example 100, (R)-(5-(5-fluoropyridin-2-yl)-1,3,4-oxadiazol-2-yl)(4-(5-methylbenzo[d]oxazol-2-yl)-6,7-dihydro-1H-imidazo[4,5-c]pyridin-5(4H)-yl)methanone]
1 to 5 µM	O=C(c1nnc(-c2ccn(C(F)F)n2)o1)N1CCc2[nH]cnc2[C@H]1c1nc2cc(F)ccc2o1 [Example 113, (S)-(5-(1-(difluoromethyl)-1H-pyrazol-3-yl)-1,3,4-oxadiazol-2-yl)(4-(5-fluorobenzo[d]oxazol-2-yl)-6,7-dihydro-1H-imidazo[4,5-c]pyridin-5(4H)-yl)methanone]
0.5 to 1 µM	COc1ccc(-c2nnc(C(=O)N3CCc4[nH]cnc4[C@H]3c3nc4cc(F)ccc4o3)o2)nc1 [Example 442, (S)-(4-(5-fluorobenzo[d]oxazol-2-yl)-6,7-dihydro-1H-imidazo[4,5-c]pyridin-5(4H)-yl)(5-(5-methoxypyridin-2-yl)-1,3,4-oxadiazol-2-yl)methanone]

same assay, conditions: A375 cells expressing R408W PAH; 24 hrs with compound, then 20 μM sepiapterin and 800 μM 13C9,15N-Phenylalanine for 4 hours; 13C-Tyrosine by LC-MS; average where tested multiple times

SMILES	AC50
O=C(c1cnn2cc(N3CCC4(CC3)CC4)ccc12)N1CCc2[nH]cnc2C1c1nc2cc(F)ccc2o1 (centres unmarked)	≥ 5 µM
COCc1ccc2c(C(=O)N3CCc4[nH]cnc4C3c3nc4ccc(F)cc4o3)cnn2c1 (centres unmarked)	1 to 5 µM
CC(C)(O)c1noc(C(=O)N2CCc3[nH]cnc3C2c2nc3c(F)cccc3o2)n1 (centres unmarked)	≥ 5 µM
O=C(Cc1cnn2ccccc12)N1CCc2[nH]cnc2C1c1nc2cc(F)ccc2o1 (centres unmarked)	1 to 5 µM

Source: patent US20250171437A1 (Agios Pharmaceuticals,Inc., priority 2022, published 2025)
